Source: PMC4533939, “Targeting lysyl oxidase for molecular imaging in breast cancer” (Breast Cancer Research : BCR, 2015)
Where two headings read alike, the source gives them in different places.

Assays:
EMT-6 tumors = assay type: in vivo, BALB/c mice
Procedure: Murine EMT-6 cells (5 × 10^6 cells in 100 μl of PBS) were injected into the upper left flank of female BALB/c mice (20–24 g; Charles River, Saint-Constant, QC, Canada). The EMT-6 tumor-bearing mice were imaged and used for ex vivo biodistribution experiments after allowing 7–10 days for the tumors to reach sizes of about 600 mm^3.
(§1) PET experiments were performed with [^18F]FB-GGGDPKGGGGG-NH2 injected into EMT-6 tumor-bearing BALB/c mice or into NIH-III mice bearing subcutaneous MCF-7 or MDA-MB-231 tumors, and tracer uptake was analyzed in vivo. For radiotracer injection, a catheter was placed into the tail vein of the mouse. While under anesthesia, mice were placed in the prone position with the medial axis parallel to the axial axis of the scanner and the thorax, abdomen and hind legs placed into the center of the field of view of the microPET R4 or Inveon PET/computed tomography (CT) scanner (Siemens Preclinical Solutions, Knoxville, TN, USA). A transmission scan for attenuation correction was not acquired. [^18F]FB-GGGDPKGGGGG-NH2 (4–5 MBq) in 100–150 μl of saline was injected intravenously through the catheter into the tail vein. The effects of BAPN were analyzed after intraperitoneal injection of 2 mg (100 mg/kg) of the inhibitor 4 h and 24 h before radiotracer injection. For the different experimental protocols, either an emission scan 60 min postinjection (dynamic experiments) was performed immediately or a 20 min postinjection PET scan acquisition (static scan followed by CT scan) was performed. Depending on the experimental setup, data acquisition continued for either 60 min or 20 min in three-dimensional list mode. The dynamic list mode data were sorted into sinograms with 53 time frames (10×2 s, 8×5 s, 6×10 s, 6×20 s, 8×60 s, 10×120 s and 5×300 s). The frames were reconstructed using ordered subset expectation maximization or maximum a posteriori reconstruction modes.
(§2) The pixel size was 0.085×0.085×0.12 cm, and the resolution in the center field of view was 1.8 mm. Correction for partial volume effects was not performed. The image files were further processed using the ROVER v2.0.51 software (ABX, Radeberg, Germany). Masks defining three-dimensional regions of interest (ROIs) were set, and the ROIs were defined by 50 % thresholding. Mean standardized uptake values (SUVmean = [activity/ml tissue]/[injected activity/body weight], mL/kg] were calculated for each ROI. Time–activity curves (TACs) were generated for the dynamic scans only. All semiquantified PET data are presented as mean ± SEM.

LOX = conditions: peptidyl lysine oxidation by LOX; cited from earlier work
Description: An alternative approach for specific targeting of LOX involves the use of oligopeptides. Nagan and Kagan have investigated collagen-like structures to explore peptide sequences derived from the lysine-containing N- and C-terminal telopeptides of collagen concerning their enzymatic conversion by LOX. […] It was concluded that the aspartic acid located two positions ...

MCF-7 tumors = assay type: in vivo, NIH-III nu/nu mice
Procedure: Human MCF-7 cells, which form xenografts in female athymic mice, were injected subcutaneously (2–5×10^6 cells in 100 μl of PBS) into 8–10-week-old female NIH-III nu/nu mice (Charles River, Wilmington, MA, USA). Before injection of the cells, all mice received a 0.72-mg pellet containing 17β-estradiol in a 60-day release preparation (Innovative Research of America, Sarasota, FL, USA).
(§3) The pellet was implanted subcutaneously into the upper right flank to provide a constant level of 17β-estradiol needed by the estrogen receptor (ER)-positive MCF-7 cells. Tumors were imaged 20–30 days after injection, with the tumors reaching sizes ranging from 200 to 400 mm^3. Human MDA-MB-231 cells (1×10^6 cells in 100 μl of PBS) were also injected subcutaneously into 8–10-week-old female NIH-III nu/nu mice. After 7–9 days, they reached a size of approximately 500 mm^3 and were suitable for the PET experiments.
PET experiments were performed with [^18F]FB-GGGDPKGGGGG-NH2 injected into EMT-6 tumor-bearing BALB/c mice or into NIH-III mice bearing subcutaneous MCF-7 or MDA-MB-231 tumors, and tracer uptake was analyzed in vivo. For radiotracer injection, a catheter was placed into the tail vein of the mouse. While under anesthesia, mice were placed in the prone position with the medial axis parallel to the axial axis of the scanner and the thorax, abdomen and hind legs placed into the center of the field of view of the microPET R4 or Inveon PET/computed tomography (CT) scanner (Siemens Preclinical Solutions, Knoxville, TN, USA). A transmission scan for attenuation correction was not acquired. […] The effects of BAPN were analyzed after intraperitoneal injection of 2 mg (100 mg/kg) of the inhibitor 4 h and 24 h before radiotracer injection. […]
(§4) The pixel size was 0.085×0.085×0.12 cm, and the resolution in the center field of view was 1.8 mm. […] Mean standardized uptake values (SUVmean = [activity/ml tissue]/[injected activity/body weight], mL/kg] were calculated for each ROI. Time–activity curves (TACs) were generated for the dynamic scans only. All semiquantified PET data are presented as mean ± SEM.

[1] = set-up: species or system BALB/c mice; conditions: mouse, in vivo
Procedure: (§5) Normal BALB/c mice received injections of approximately 25 MBq of [^18F]FB-GGGDPKGGGG. Venous blood samples were taken at 5, 15, 30 and 60 min postinjection and processed for determination of metabolic stability in vivo. Blood cells were separated by centrifugation (13,000 rpm for 5 min). Proteins in the supernatant were precipitated by addition of 2 volume parts of methanol followed by a second centrifugation step (13,000 rpm for 5 min). Radioactivity in blood components (cells, proteins and plasma) was measured using a Wallac Wizard 1480 3 automatic gamma counter. The clear plasma supernatant was examined using a Shimadzu HPLC system (Shimadzu Scientific Instruments, Columbia, MD, USA) equipped with a DGU-20A5 degasser, a SIL-20AHT autosampler, a LC-20AT pump, a SPD-M20A photo diode array detector and a RAMONA* radiodetector (Raytest Isotopenmessgeraete, Straubenhardt, Germany). The samples were analyzed using a Phenomenex Luna 10-μm C18(2) 100 Å, 250×4.6-mm column and the following gradients with water/0.2 % TFA as solvent A and acetonitrile as solvent B: 0–3 min 10 % B, 10 min 30 % B, 17 min 50 % B, 23 min 70 % B and 27–30 min 90 % B. The flow was constant at 1 ml/min, and the ultraviolet signals were measured at 210 nm and 254 nm.

[2] = Radio-HPLC of plasma samples and quality control (retention time); assay type: physicochemical; conditions: Luna C18(2) 250×4.6 mm, water/0.2 % TFA - acetonitrile gradient, 1 ml/min; two more lipophilic radiometabolites eluted at 13.2 and 14.3 min
Procedure: as §5

[3] = system: breast cancer tumor models; assay type: in vivo, mice; conditions: for tumor-to-blood ratio / tumor-to-muscle ratio: tumor model not stated
Procedure: as §1, §2

MDA-MB-231 tumors = assay type: in vivo, NIH-III nu/nu mice
Procedure: as §3
as §1, with “Depending on the experimental setup, data acquisition continued for either 60 min or 20 min in three-dimensional list mode. The dynamic list mode data were sorted into sinograms with 53 time frames (10×2 s, 8×5 s, 6×10 s, 6×20 s, 8×60 s, 10×120 s and 5×300 s). The frames were reconstructed using ordered subset expectation maximization or maximum a posteriori reconstruction modes.” left out
as §4

**Q.** For N#CCCN [BAPN, β-aminopropionitrile, reference compound], which “reduction of maximum tumor uptake of the radiotracer (SUV5min)” value (EMT-6 tumors; EMT-6 tumor, 100 mg/kg BAPN (about 2 mg per mouse) i.p. 4 h before [18F]FB-GGGDPKGGGGG-NH2) is on record?
**A.** approximately 33%

**Q.** And the “effect on radiotracer tumor uptake at 60 min postinjection” value (EMT-6 tumors; EMT-6 tumor, BAPN predosing 4 h or 24 h)?
**A.** no effect

**Q.** And the “effect on radioactivity in muscle tissue” value (EMT-6 tumors; muscle of EMT-6 tumor-bearing mice, BAPN predosing)?
**A.** unaltered

**Q.** Which results are given for “Ac-GGGDPKGGGGG-NH2 [oligopeptide substrate with favorable kinetic properties for LOX-mediated peptidyl lysine oxidation (Nagan and Kagan)]”?
**A.** Michaelis constant (Km) among several collagen N-telopeptide derivatives (LOX): lowest; kcat/Km among several collagen N-telopeptide derivatives (LOX): highest

**Q.** For “[^18F]FB-GGGDPKGGGGG-NH2 [[^18F]fluorobenzoate-GGGDPKGGGGG-NH2, 18F-labeled LOX-targeting oligopeptide PET radiotracer]”, which “SUV5min, tumor” value (MCF-7 tumors; MCF-7 tumor, 4-5 MBq i.v., 5 min postinjection, mean ± SEM, n = 6) is on record?
**A.** 0.59±0.03

**Q.** What about the “SUV60min, tumor” value (MCF-7 tumors; MCF-7 tumor, 60 min postinjection, mean ± SEM, n = 6) of the same molecule?
**A.** 0.12±0.02

**Q.** And the “SUV60min, muscle tissue” value (MCF-7 tumors; mouse, in vivo)?
**A.** 0.05±0.008

**Q.** And the “share of injected radiotracer found in the plasma compartment” value [1]?
**A.** > 60%

**Q.** And the “SUV5min, tumor” value (EMT-6 tumors; EMT-6 tumor, 4-5 MBq i.v., 5 min postinjection, mean ± SEM, n = 4)?
**A.** 0.63±0.08

**Q.** What about the “SUV60min, tumor, in the absence and presence of BAPN” value (EMT-6 tumors; EMT-6 tumor, 60 min postinjection, control and BAPN-predosed groups) of the same molecule?
**A.** 0.19–0.21

**Q.** And the “SUV60min, tumor” value (EMT-6 tumors; EMT-6 tumor, 60 min postinjection, mean ± SEM, n = 4)?
**A.** 0.19±0.02

**Q.** What about the “SUV5min, tumor, in the presence of BAPN” value (EMT-6 tumors; EMT-6 tumor, BAPN i.p. 24 h before radiotracer, mean ± SEM, n = 7, p > 0.05) of the same molecule?
**A.** 0.52±0.05

**Q.** And the “SUV60min, muscle tissue” value (EMT-6 tumors; mouse, in vivo)?
**A.** 0.03±0.004

**Q.** What about the HPLC retention time [2] of the same molecule?
**A.** 12.2 min

**Q.** And the tumor-to-blood ratio ([3]; 5 min postinjection)?
**A.** 0.3

**Q.** And the tumor-to-muscle ratio ([3]; 5 min postinjection)?
**A.** 2.7

**Q.** And the tumor-to-blood ratio ([3]; 60 min postinjection)?
**A.** 2.3

**Q.** And the tumor-to-muscle ratio ([3]; 60 min postinjection)?
**A.** 1

**Q.** And the “time to maximum SUV in tumor” value ([3]; mouse, in vivo)?
**A.** 3 to 5 min

**Q.** What about the “SUV5min, tumor” value (MDA-MB-231 tumors; MDA-MB-231 tumor, 4-5 MBq i.v., 5 min postinjection, mean ± SEM, n = 5) of the same molecule?
**A.** 0.50±0.09

**Q.** What about the “SUV60min, tumor” value (MDA-MB-231 tumors; MDA-MB-231 tumor, 60 min postinjection, mean ± SEM, n = 5) of the same molecule?
**A.** 0.12±0.02

**Q.** What about the “SUV60min, muscle tissue” value (MDA-MB-231 tumors; mouse, in vivo) of the same molecule?
**A.** 0.04±0.004
